According to patent publication US8575168B2, “Compounds and compositions as modulators of GPR119 activity” (IRM LLC, priority 2009, dated 2013):

Target: T1, human GPR119 (Homo sapiens, UniProt Q8TDV5)
T1 construct: expressed in transfected cells
T1 sequence (Q8TDV5 1-335): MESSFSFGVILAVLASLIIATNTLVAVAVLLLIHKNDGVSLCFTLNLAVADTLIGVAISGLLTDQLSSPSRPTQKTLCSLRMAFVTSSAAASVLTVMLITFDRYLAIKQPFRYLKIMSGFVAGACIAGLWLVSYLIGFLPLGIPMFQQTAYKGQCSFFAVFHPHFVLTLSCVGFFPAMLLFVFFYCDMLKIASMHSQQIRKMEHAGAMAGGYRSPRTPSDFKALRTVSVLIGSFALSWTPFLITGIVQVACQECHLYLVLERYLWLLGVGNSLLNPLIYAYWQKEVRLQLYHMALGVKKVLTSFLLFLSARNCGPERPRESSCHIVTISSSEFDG
Assay: Cyclic AMP Assay in Stable Cell Line (HTRF)
Type: cell-based
Conditions: Flp-In-CHO-hGPR119 cells, intracellular cAMP, 30 minutes at 37° C., 1 mM IBMX
Description: Flp-In-CHO cells (Invitrogen, Cat. #R758-07) are maintained in Ham's F12 medium supplemented with 10% fetal bovine serum, 1% antibiotic mixture and 2 mM L-glutamine. The cells are transfected with a DNA mixture containing human GPR119 in pcDNA5/FRT vector and the pOG44 vector (1:9) using Fugene6 (Roche), according to the manufacturer's instruction. After 48 hours, the medium is changed to medium supplemented with 400 μg/ml hygromycin B to initiate the selection of stably transfected cells.
To test the activity of compounds of the invention, Flp-In-CHO-hGPR119 cells are harvested and resuspended in DMEM plus 3% lipid-depleted fetal bovine serum. Forth μl of cells are plated in 384 well plates at a density of 15,000 cells/well. IBMX (3-isobutyl-1-methyl-xanthine) is added to the cells to a final concentration of 1 mM, followed by the addition of 500 nl of the compound to be tested. The cells are incubated at 37° C. for 30 minutes. Equal volume (20 μl) of the HTRF reagents, anti-cAMP-Cryptate and cAMP-XL665, are added to the cells. The plates are incubated at room temperature for 1 hour and read on a HTRF reader according to the manufacturer's instruction.

Row | EC50 | Structure (SMILES)
1 | 97 nM | Cn1nc(C(F)(F)F)cc1CN1CC(Oc2c(F)cc(C3CCN(S(C)(=O)=O)CC3)cc2F)C1 [Example B15]
2 | 78 nM | CC(c1nc(C(F)(F)F)no1)N1CCC(Oc2c(F)cc(C3CCN(S(C)(=O)=O)CC3)cc2F)CC1 (stereo not drawn) [Example B30]
3 | 49 nM | CS(=O)(=O)N1CCC(c2cc(F)c(OC3CCN(Cc4nc(C(F)F)no4)CC3)c(F)c2)CC1 [Example B5]
4 | 52 nM | CS(=O)(=O)N1CCC(c2cc(F)c(OC3CCN(Cc4csc(C(F)(F)F)n4)CC3)c(F)c2)CC1 [Example B18]
5 | 208 nM | Cn1nc(C(F)(F)F)nc1CN1CCC(Oc2c(F)cc(C3CCN(S(C)(=O)=O)CC3)cc2F)CC1 [Example B20]
6 | 757 nM | CS(=O)(=O)N1CCN(c2cnc(OC3CCN(Cc4nc(C(F)(F)F)no4)CC3)cn2)CC1 [Example B4, 5-((4-(5-(4-(Methylsulfonyl)piperazin-1-yl)pyrazin-2-yloxy)piperidin-1-yl)methyl)-3-(trifluoromethyl)-1,2,4-oxadiazole]
7 | 443 nM | CS(=O)(=O)N1CCC(c2cc(F)c(OC3CCN(Cc4noc(C(F)(F)F)n4)CC3)c(F)c2)CC1 [Example B22]
8 | 37 nM | CS(=O)(=O)N1CCC(c2ccc(OC3CCN(Cc4nc(C(F)(F)F)no4)CC3)cc2)CC1 [Example B26]
9 | 37 nM | CS(=O)(=O)N1CCC(c2ccc(OC3CCN(Cc4nc(C(F)(F)F)no4)CC3)c(F)c2)CC1 [Example B6]

The remaining lines, values behind:

Row | Structure (SMILES) | EC50
10 | CS(=O)(=O)N1CCC(c2cc(F)c(OC3CN(Cc4ccc(C5(F)COC5)cc4)C3)c(F)c2)CC1 [Example A28] | 49 nM
11 | O=C(N1CC=C(c2cc(F)c(OC3CN(Cc4ccc(C(F)(F)F)cc4)C3)c(F)c2)CC1)C(F)(F)F [Example A35] | 688 nM
12 | CC(Cc1ccc(C(F)(F)F)cc1)N1CC(Oc2c(F)cc(C3CCN(S(C)(=O)=O)CC3)cc2F)C1 (stereo not drawn) [Example A24] | 177 nM
13 | CC(C)c1ccc(CN2CC(Oc3cnc(N4CCN(S(C)(=O)=O)CC4)cn3)C2)cc1 [Example A11] | 22 nM
14 | CS(=O)(=O)N1CCC(c2cc(F)c(OC3CN(C(CO)c4ccc(C(F)(F)F)cc4)C3)c(F)c2)CC1 (stereo not drawn) [Example A29] | 1090 nM
15 | CC(C)c1ccc(CN2CC(Oc3ccc(N4CCN(S(C)(=O)=O)CC4=O)nc3)C2)cc1 [Example A18] | 11 nM
16 | CS(=O)(=O)N1CCN(c2ccc(OC3CN(Cc4ccc(OC(F)(F)F)cc4)C3)cn2)CC1 [Example A8] | 70 nM
17 | CCCS(=O)(=O)N1CCN(c2ccc(OC3CN(Cc4ccc(C(F)(F)F)cc4)C3)cn2)CC1 [Example A21] | 39 nM
18 | CS(=O)(=O)N1CCC(c2cc(F)c(OC3CCN(Cc4cccc(C(F)(F)F)c4)CC3)c(F)c2)CC1 [Example A45] | 48 nM
19 | CS(=O)(=O)N1CCN(c2cnc(OC3CN(Cc4ccc(OC(F)(F)F)cc4)C3)cn2)C(=O)C1 [Example A4, 4-(methylsulfonyl)-1-(5-(1-(4-(trifluoromethoxy)benzyl)azetidin-3-yloxy)pyrazin-2-yl)piperazin-2-one] | 12 nM
20 | CS(=O)(=O)N1CCN(c2ncc(OC3CN(Cc4ccc(C(F)(F)F)cc4)C3)cn2)CC1 [Example A42] | 149 nM
21 | CC(C)c1ccc(CN2CC(Oc3ccc(N4CCN(S(C)(=O)=O)CC4)nc3)C2)cc1 [Example A1, 1-(5-(1-(4-isopropylbenzyl)azetidin-3-yloxy)pyridin-2-yl)-4-(methylsulfonyl)piperazine] | 118 nM
22 | CCC(c1ccc(C(F)(F)F)cc1)N1CC(Oc2c(F)cc(C3CCN(S(C)(=O)=O)CC3)cc2F)C1 (stereo not drawn) [Example A25] | 246 nM
23 | O=S(=O)(CCCO)N1CCC(c2cc(F)c(OC3CN(Cc4ccc(C(F)(F)F)cc4)C3)c(F)c2)CC1 [Example A41] | 36 nM
24 | CS(=O)(=O)N1CCN(c2cc(F)c(OC3CN(Cc4ccc(C(F)(F)F)cc4)C3)c(F)c2)CC1 [Example A32] | 145 nM
